Experimental data from patent publication US4897390A, “Novel anti-obesity compounds and method of use” (priority 1987, dated 1990).

Tests used:
[1] = test system: 11β-hydroxylase; conditions: cited from earlier work
[2] = DHEA treatment in mice; cited from earlier work
[3] = cited from earlier work
[4] = test system: NADH oxidase; conditions: cited from earlier work
[5] = test system: fatty acid synthetase; conditions: prolonged treatment; mice with excessive levels of this enzyme; cited from earlier work
[6] = test system: uterine weight of the immature mouse; assay: Estrogenic effect: uterine weight of the immature mouse; assay type: in vivo, C57-WH mice
Procedure: Immature female C57-WH mice were maintained at 25° C. at 12 hours light/12 hours dark (lights on at 0800 h and off at 2000 h). Purina Lab Chow and water were available ad libitum. The control and each experimental group of animals consisted of six mice. Treatment began after an acclimation period of five days. Beginning at 27 days of age and continuing for three consecutive days, the mice were orally intubated with DHEA or β-MET suspended in sesame oil. The control mice received only sesame oil. Between 1400-1600 h on day 30, all animals were sacrificed by an overdose of ether. Uteri were removed, cleaned of adventitious tissue, and weighed to the nearest 0.5 mg.
All reported results are expressed as the mean plus or minus the standard error (mean±SE).

[7] = test system: thyroid stimulating hormone and thyroxine; conditions: cited from earlier work
[8] = test system: glucose-6-phosphate dehydrogenase (G6PD); conditions: cited from earlier work
[9] = test system: fatty acid synthetase; conditions: cited from earlier work
[10] = test system: obesity; conditions: known; cited from earlier work
[11] = cited from earlier work; for deactivation and excretion from general circulation: once excreted from cells to the general circulation; for conjugation in blood stream: when excreted by individual cells to the blood stream
[12] = Short-term (thirty day) treatment with large doses in mice; assay type: in vivo, C57-WH mice
Procedure: Five male and five female C57-WH mice (age: ~11 weeks, weight: ~15 g each) each received 200 mg/kg of β-MET, suspended in sesame oil, by p.o. intubation every second day for a period of thirty days. Another group of ten matched controls received only the sesame oil. […] Abnormalities such as hypertrophic lymph nodes, diarrhea, bloody stools, or loss of hair luster were not seen.

[13] = Cumulative food consumption of C57-WH mice treated with β-MET for 14 weeks; assay type: in vivo
Procedure: (§1) Forty C57-WH mice were maintained five per cage in a temperature-controlledroom (25° C.) with 12-h light/day (7:00 A.M. to 7:00 P.M.). All mice were at ten weeks of age when the experiment was begun.
(§2) The mice were divided into four groups: β-MET-treated female; control female; β-MET-treated male; and control male (for each group, n=10). All β-MET-treated animals received 0.07 mg (~4.6 mg/kg) of the β-MET administered as a suspension in sesame oil by PO intubation three times weekly. The control animals received only sesame oil. The mice were treated for a period of 14 weeks with access to Purina Laboratory chow and water ad libitum. Body weights were recorded weekly, and food consumption was determined by subtracting the food remaining from the food supplied at the beginning of each week.
(§3) Student's t-test was used in all statistical analyses of the data. Data are presented as means ±SD from the four groups of mice. Differences were considered significant at p<0.01.

[14] = test system: obesity; assay: Anti-obesity efficacy in various mammalian systems (general statement); assay type: in vivo
[15] = Acute oral toxicity in mice (LD50); assay type: in vivo, C57-WH mice
Procedure: The LD50 of β-MET administered orally in mice could not be accurately determined. However, five male and five female C57-WH mice, each weighing approximately 15 g, received 200 mg of β-MET, suspended in sesame oil, by p.o. intubation.

[16] = Body weight of C57-WH mice treated with β-MET for 14 weeks; assay type: in vivo; conditions: for mean weight after 14 weeks: 0.07 mg (~4.6 mg/kg) PO three times weekly, n=10; for significance of difference in mean weights versus control: significant at p<0.01
Procedure: as §1, §2, §3

[17] = test system: Salmonella typhimurium; conditions: alone and with liver homogenate fraction from rat treated with polychlorinated biphenyl
Procedure: β-MET was tested for mutagenicity by administration to a his^- auxotrophic mutant of Salmonella typhimurium.β-MET was administered alone and with a liver homogenate fraction from a rat that had been treated with polychlorinated biphenyl.

[18] = 200 mg/kg p.o. every second day for thirty days

C[C@]12CC[C@H](O)CC1=CC[C@@H]1[C@@H]2CC[C@]2(C)C(=O)CC[C@@H]12 [DHEA, dehydroepiandrosterone]
inhibition of 11β-hydroxylase [1]: known to inhibit 11β-hydroxylase | lipogenesis and fat cell size [2]: decreases in lipogenesis and fat cell size | toxicity in humans ([3]; in vivo): relatively low toxicity in humans | estrogenic and androgenic effects ([3]; long-term administration, humans): Estrogenic and androgenic effects | inhibition of NADH oxidase [4]: known inhibitor of NADH oxidase | liver and adipose tissue fatty acid synthetase activity [5]: decrease liver and adipose tissue fatty acid synthetase activity | Uterine weight ([6]; daily dose 400.0 mg/kg, oral, three consecutive days from day 27, mean±SE, control 58.0 ± 3): 257.0 ± 5 mg/100 g body weight | thyroid follicle epithelium ([7]; rat studies): hypertrophy of the thyroid follicle epithelium | levels of thyroid stimulating hormone and thyroxine in the blood ([7]; rat, in vivo): known to increase levels of thyroid stimulating hormone and thyroxine in the blood | inhibition of mammalian G6PD [8]: known to inhibit mammalian glucose-6-phosphate dehydrogenase | inhibition of fatty acid synthetase [9]: known to directly inhibit fatty acid synthetase

C[C@]12CC[C@@H](O)C[C@H]1CC[C@@H]1[C@@H]2CC[C@]2(C)C(=O)CC[C@@H]12 [α-HET, 3α-hydroxyetiocholanone]
anti-obesity effects attributed to DHEA [10]: known to accomplish the anti-obesity effects attributed to DHEA | deactivation and excretion from general circulation [11]: rapidly deactivated and excreted from the body | conjugation in blood stream [11]: conjugated to glucuronic acid at the 3-hydroxy position

C[C@]12CC[C@H](O)C[C@H]1CC[C@@H]1[C@@H]2CC[C@]2(C)C(=O)CC[C@@H]12 [β-HET, 5-β-androstan-3-β-ol-17-one]
anti-obesity effects attributed to DHEA [10]: known to accomplish the anti-obesity effects attributed to DHEA | deactivation and excretion from general circulation [11]: rapidly deactivated and excreted from the body | conjugation in blood stream [11]: conjugated to glucuronic acid at the 3-hydroxy position

C[C@H]1CC[C@@]2(C)[C@H](CC[C@@H]3[C@@H]2CC[C@]2(C)C(=O)CC[C@@H]32)C1 [β-MET, 3-β-methyl-5-β-androstan-17-one]
behavioral or external physical differences from controls [12, 18]: no obvious behavioral or external physical differences from controls | hypertrophic lymph nodes, diarrhea, bloody stools, or loss of hair luster [12, 18]: not seen | postmortem studies [12, 18]: no gross abnormalities or visible pathological changes | survival and health [12, 18]: all experimental mice were alive and apparently healthy | harm by short-term treatment with relatively large doses ([12]; approximately 20x the effective anti-obesity dose in mice): appears not to be harmful to mice | examination of visible membranes ([12]; mouse, in vivo, po, 200 mg/kg): no abnormal findings | food intake versus control ([13]; female, 14 weeks (FIG. 6)): not significantly different | effect on appetite ([13]; male and female (FIG. 6)): without suppressing appetite | cumulative food consumption versus control ([13]; male, 14 weeks (FIG. 6)): not significantly different | inhibition of obesity in comparison to 3β-HET ([14]; comparison to 3β-HET): much more effective inhibitor of obesity | antiobesity efficacy and safety ([14]; various mammalian systems): safe and effective antiobesity agent | estrogenic activity ([6]; mouse, in vivo): does not exhibit similar estrogenic activity | survival ([15]; 200 mg p.o. per ~15 g mouse, five male and five female): All of the animals survived | LD50 ([15]; mouse, in vivo, po, mice, p.o. in sesame oil): > 10000 mg/kg | mean weight after 14 weeks ([16]; female, control female 26.1 g): 21.8 g | significance of difference in mean weights versus control ([16]; female): a significant difference in mean weights was observed after the third week of treatment | inhibition of weight gain ([16]; male and female C57-WH mice, 14 weeks (FIG. 5)): significantly inhibits weight gain | mean weight after 14 weeks ([16]; male, control male 24.8 g): 20.7 g | significance of difference in mean weights versus control ([16]; male): statistically significant after the sixth week of treatment | mutagenicity [17]: not mutagenic
